Test results as given in patent US20140318000A1, “COMBINING ALGAE CULTIVATION AND CO2 CAPTURE” (Nederlandse Organisatie voor …, priority 2011, published 2014).
“Also recorded” adds a separate entry of the source.

Key:
[1] = tested on: Spirulina platensis; test: Growth of Spirulina platensis (dry algae density) in growth medium combined with absorbent liquid loaded with CO2; assay type: cell-based
Experimental: For the absorbent liquids standard procedures were used to prepare the solvent solutions. For the absorbent liquids stock solutions with a molarity of 2 M were prepared. To test the growth, the molarities of the solutions were adjusted at the start of the experiments by adding a given amount of the aqueous growth medium.
The growth of the algae was tested with different solutions composed from different ratios (volume based) of growth media and absorbent liquid.
Subsequently, a number of dedicated experiments were performed were a specific algae (and growth medium) was combined with a given absorbent liquid in the presence of CO2. The CO2 was added in two different ways.
In the first way, so-called batch operation, the algae, growth medium, and the absorbent liquid (with a given molarity) were prepared in a beaker (of about 1 l) or reactor (available with a volume of 10 l and 20 l) and the CO2 was bubbled through for at least 12 h to saturate the solution with a high flow rate (in the order of 200 ml/min).
During the experiments the pH was measured on a daily basis.
At given times a small sample was taken from the beaker (or reactor) to analyse the micro-algae. The volume of the sample was determined, the sample was then dried in an oven, and subsequently the mass determined (by weighing) to obtain the dry algae density (g/l).
For various tests, Arthrospira (Spirulina) platensis was used. The Spirulina strain is kept in Schlösser's medium (Schlösser, Berichten der Deutchen Botanischen Gesellschaft 1982, 95, 181-276). Schlösser's medium contained per litre: 13.6 g of NaHCO3, 4.03 g of Na2CO3, 0.5 g of K2HPO4, 2.5 g of NaNO3, 1 g of K2SO4, 1 g of NaCl, 0.2 g of MgSO4.7H2O, 0.04 g of CaCl2.2H2O, 0.01 g of FeSO4.7H2O, and 0.08 g of EDTA (ethylenediaminetetraacetic). Some micronutrients are added as well.
The overall composition based on 1 l of total solution was obtained by combining: 400 ml of the growth medium, for example the Schlösser's medium, with 400 ml of an aqueous amino acids salts, with as ‘counter ion’ potassium hydroxide, solution, where the amount of amino acid was varied between 0.1 M and 1 M. Subsequently, 200 ml of algae solution was added.

[2] = CO2 uptake in absorbent liquid in a sealed beaker fed continuously with flue gas, online CO2 analyser; assay type: physicochemical; settings: 0.2 M taurine, 4 l liquid, flue gas 7.2% CO2, total period 100 000 s
Experimental: CO2 is fed continuously to a sealed beaker with water and with an absorp absorbent liquid (0.2 M taurine). The height of the liquids is 30 cm the total amount of liquids is 4 l. For water the uptake, that is the amount of CO2, in %, leaving the beaker as function of the time, is given for two flow rates. […] In FIG. 4, the CO2 concentration, in %, leaving the beaker as function of time is depicted. Experiments were conducted in a sealed beaker, where flue gas was fed, and where the gaseous stream leaving the beaker was analysed with an online CO2 analyser. The composition of the ‘flue gas’ was 7.2% CO2 and […].

## NCCS(=O)(=O)O [taurine, 2-aminoethanesulphonic acid]
[1]; Spirulina platensis, 0.1 M taurine as absorbent liquid
  dry algae density: about 2 g/l
[1]; Spirulina platensis, 0.2 M taurine, solution saturated with CO2 at start, before reloading at day 20
  dry algae density, initial constant level: about 1.4 g/l
[1]; Spirulina, 0.2 M taurine initially saturated with CO2, after about 15 days
  final dry algae density: 2.1 g/L
[1]; Spirulina, 0.2 M taurine initially saturated with CO2, increase from 0.25 g/l in about 5 days after start-up
  dry algae density after growth period: 1.7 g/L
[2]
  CO2 leaving the beaker: no CO2 was measured; also recorded: almost no CO2 is leaving the beaker
